Key:
EP2 [1] = target: T1, EP2 (Homo sapiens, UniProt P43116); assay: EP2 flipr EC50; format: cell-based
Source text: (§1) U.S. patent application Ser. No. 11/553,143, filed on Oct. 26, 2006, incorporated by reference herein, describes the methods used to obtain the in vitro data in the table below.

EP2 [2] = target: T1, EP2; assay: EP2 cAMP EC50; format: cell-based
Source text: as §1

EP2 [3] = target: T1, EP2; assay: EP2 binding Ki
Source text: as §1

hDP = target: T2, hDP (Homo sapiens, UniProt Q13258); assay: Other receptors functional EC50, hDP; format: cell-based
T2 sequence (Q13258 1-359): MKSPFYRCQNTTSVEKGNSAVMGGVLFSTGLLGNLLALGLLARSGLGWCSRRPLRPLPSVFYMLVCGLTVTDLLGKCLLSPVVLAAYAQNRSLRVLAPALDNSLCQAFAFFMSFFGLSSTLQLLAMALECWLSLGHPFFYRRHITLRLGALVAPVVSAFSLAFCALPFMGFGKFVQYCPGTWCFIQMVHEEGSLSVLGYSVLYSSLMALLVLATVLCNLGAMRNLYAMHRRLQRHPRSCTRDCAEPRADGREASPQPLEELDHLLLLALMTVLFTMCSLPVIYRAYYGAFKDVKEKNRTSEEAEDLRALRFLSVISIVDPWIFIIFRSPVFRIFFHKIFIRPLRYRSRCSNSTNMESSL
Source text: as §1

hEP3A = target: T3, hEP3A (Homo sapiens, UniProt P43115); assay: Other receptors functional EC50, hEP3A; format: cell-based
T3 sequence (P43115 1-390): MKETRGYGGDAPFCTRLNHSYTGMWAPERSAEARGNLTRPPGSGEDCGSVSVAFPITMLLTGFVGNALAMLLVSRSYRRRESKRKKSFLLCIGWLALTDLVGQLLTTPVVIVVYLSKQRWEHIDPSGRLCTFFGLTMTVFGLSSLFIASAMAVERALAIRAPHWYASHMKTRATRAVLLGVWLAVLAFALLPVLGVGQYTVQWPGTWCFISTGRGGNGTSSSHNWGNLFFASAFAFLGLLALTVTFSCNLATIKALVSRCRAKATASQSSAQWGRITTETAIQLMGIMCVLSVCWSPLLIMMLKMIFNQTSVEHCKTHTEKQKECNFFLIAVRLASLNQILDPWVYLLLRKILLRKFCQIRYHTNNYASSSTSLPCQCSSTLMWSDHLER
Source text: as §1

hTP = target: T4, hTP (Homo sapiens, UniProt P21731); assay: Other receptors functional EC50, hTP; format: cell-based
T4 sequence (P21731 1-343): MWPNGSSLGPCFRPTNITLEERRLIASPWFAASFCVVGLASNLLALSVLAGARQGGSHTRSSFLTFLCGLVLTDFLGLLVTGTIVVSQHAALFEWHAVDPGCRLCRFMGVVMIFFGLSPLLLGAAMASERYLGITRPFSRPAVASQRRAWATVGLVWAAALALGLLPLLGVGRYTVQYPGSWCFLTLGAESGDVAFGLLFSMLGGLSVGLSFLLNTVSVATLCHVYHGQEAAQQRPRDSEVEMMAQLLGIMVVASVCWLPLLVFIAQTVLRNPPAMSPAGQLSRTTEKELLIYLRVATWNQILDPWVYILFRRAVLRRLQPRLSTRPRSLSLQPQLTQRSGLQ
Source text: as §1

T1 sequence (P43116 whole entry): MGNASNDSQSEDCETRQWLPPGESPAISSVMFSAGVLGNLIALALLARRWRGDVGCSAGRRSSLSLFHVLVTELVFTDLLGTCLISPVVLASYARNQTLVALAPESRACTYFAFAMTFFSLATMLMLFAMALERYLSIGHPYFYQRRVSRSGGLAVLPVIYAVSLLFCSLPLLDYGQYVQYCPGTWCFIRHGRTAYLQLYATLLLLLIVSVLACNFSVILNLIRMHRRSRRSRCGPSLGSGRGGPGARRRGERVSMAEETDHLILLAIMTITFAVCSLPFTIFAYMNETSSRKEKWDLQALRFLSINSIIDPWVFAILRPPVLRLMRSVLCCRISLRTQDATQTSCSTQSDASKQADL

| Structure (SMILES) | EC50 (EP2 [1]) [nM] | EC50 (EP2 [2]) [nM] | Ki (EP2 [3]) [nM] | EC50 (hDP) [nM] | EC50 (hEP3A) [nM] | EC50 (hTP) [nM] |
| --- | --- | --- | --- | --- | --- | --- |
| CCCCC[C@H](O)c1ccc(N2C(=O)CC[C@@H]2/C=C\Cc2ccc(C(=O)O)s2)cc1 | 23 | 19 | 824 | > 10000 | – | – |
| CCCCCC(O)c1ccc(N2C(=O)CC[C@@H]2C/C=C/c2nc(C(=O)O)cs2)cc1 (stereo partly drawn) | – | 24 | 2180 | > 10000 | 2980 | > 10000 |
| CCCCCC(O)c1ccc(N2C(=O)CC[C@@H]2C/C=C\c2nc(C(=O)O)cs2)cc1 (stereo partly drawn) | 17 | 0.75 | 43 | 1850 | 43 | – |
| CCCCC[C@H](O)c1ccc(N2C(=O)CC[C@@H]2C/C=C/c2ccc(C(=O)O)s2)cc1 | – | 73 | 1420 | > 10000 | 2070 | – |

From US7473702B2, “Substituted gamma lactams as therapeutic agents” (Allergan, Inc., priority 2005, dated 2009)
